Results on one compound are retold here after patent publication US12239132B2, “Compounds and methods for increasing soil nutrient availability” (SOUND AGRICULTURE COMPANY, priority 2018, dated 2025).

Experiment [1] has as its system tomato. As to the kind of experiment: Field trials in tomato. Format: in vivo. An excerpt:
Field trials show both increasing yield and larger, higher quality fruits. Tomato yields were increased by up to 40% in California field trials.

Experiment [2] relates to Azotobacter vinlandii. In words: Acetylene reduction method to measure nitrogen fixation in Azotobacter vinlandii. The conditions noted are these: increasing amounts of AB09, Burks-N media, 48 h growth, dose response. Format: cell-based. The text has this: Azotobacter vinlandii is a model free-living nitrogen fixing bacteria, or diazotroph, commonly found in soils. The acetylene reduction technique was used to determine if the nitrogen fixation activity of A. vinlandii is altered due to AB09 treatment. The acetylene reduction technique relies on the non-specific activity of the nitrogenase enzyme (which is responsible for reducing atmospheric dinitrogen gas N2 to ammonia NH3), to reduce acetylene to ethylene. Acetylene and ethylene gases were detected and quantified by GC/MS.
Liquid flask cultures of A. vinlandii were grown in nitrogen-free growth media (Burks-N) and supplemented with varying amounts of AB09 (0 ug/mL culture received a mock treatment of water). Samples were analyzed for acetylene reduction to ethylene after 48 h of growth (cell concentration was normalized prior to the addition of acetylene).
Azotobacter vinlandii cultures starting from OD600=0.02 were grown in liquid N-free bacterial growth media (Burks-N) with varying amounts of AB09 shaking at 28 C. Three flasks of bacteria were grown for each concentration of AB09. After 48 h, cultures were normalized OD600=0.1 and 5 mL of the normalized culture was transferred to gas-tight autosampler vials. […] After 3 hours of incubation (with shaking at 28 C), the gas headspace of the vials was measured via GC/MS for acetylene and ethylene. […]

Experiment [3] concerns wheat. As to the kind of experiment: Wheat plant growth assay (seed treatment). Type of experiment: in vivo. The settings on record: seed treatment 1 ug/seed, four days after emergence, vs mock treated. Here is the method: To determine the effect of AB09 on plants, AB09 was seed treated at a rate of 1 ug/seed onto wheat seeds. Plants were analyzed four days after emergence. […] AB09 was applied to wheat seeds, which were planted in sand and shoots were measured for height at four days post-emergence. Control seeds received a mock treatment. The WinRhizo Pro root scanner and software were used to obtain root length and surface area. AB09 at a rate of lug/seed in acetone was treated onto seeds and the acetone was allowed to fully evaporate. Control seeds were mock treated with acetone. Seeds were planted in wet sand in 50 mL tubes sand, placed under fluorescent lights, and watered with tap water. Seedlings were measured four days post-emergence for shoot height. The WinRhizo Pro root scanner and software were used to obtain root length and surface area.

Experiment [4] can be described thus: Field trial of soil phosphate depletion on Iowa farmland. Format: in vivo. The conditions noted are these: Iowa field plots, vs untreated plots. Here is the method: Available soil phosphate was measured at the beginning of the growing season (Pre VT) and at the end of the growing season (Post VT).
The solubilizing activity of AB09 was measured in field trials on Iowa farmland. Over the course of a growing season, plants pull available phosphate from the soil, resulting in lower levels at the end of the season versus at the beginning. This phosphate depletion can be measured with standard soil tests.

Experiment [5] relates to phosphate solubilizing bacteria (PSB). As to the kind of experiment: Halo assay of phosphate solubilizing bacteria on agar plates containing insoluble phosphate. Format: cell-based. The settings on record: AB09 treated PSB vs control treated PSB. An excerpt:
Larger halos indicate higher microbial solubilization activity.

Experiment [6] concerns soil consortia cultures. As to the kind of experiment: Phosphate solubilization in soil-inoculated NBRIP cultures. Type of experiment: cell-based. Here is the method:
To select for the native soil microbial consortia that solubilize phosphorus, a small quantity of soil was inoculated into flask cultures of NBRIP media. Flasks were treated with increasing amounts of AB09 and grown at room temperature on orbital shakers for 4 days. The cleared supernatant of the soil cultures were quantified for available phosphorus using the malachite green method.
FIG. 3. AB09 induced phosphate solubilization activity occurs in a dose-dependent manner in soil consortia cultures. 50 mL of NBRIP growth medium was added to 250 mL baffled flasks, containing 500 mg of 2 mm particle-sized soil, to select for phosphate solubilizing microbes. Flasks with sterilized foam caps were placed on orbital shakers at 110 RPM for 4 days at room temperature. Orthophosphate was measured using the malachite-green phosphate method.
50 mL of NBRIP growth medium was added to 250 mL baffled flasks, containing 500 mg of 2 mm particle-sized soil, to select for phosphate solubilizing microbes. AB09 stock solution (10 mg/mL) was prepared in distilled water. Untreated controls received no AB09. […]
Flasks with sterilized foam caps were placed on orbital shakers at 110 RPM for 4 days at room temperature. […] Supernatant from samples were removed and placed into new microcentrifuge tubes for orthophosphate quantification using the malachite green method.

SMILES strings stand for the structures. Entries after “also recorded” stand apart in the source; their conditions may differ.

Regarding `CC1=CC(Oc2c(C)occc2=O)OC1=O` (stereo not shown) [AB09, maltol lactone], the “increase of tomato yields” value in experiment [1] (California field trials) is recorded as “up to 40%”. For the same compound, in experiment [1] (treated plants), the “tomato fruit size and number” value is “larger and more numerous fruits”. In experiment [2], the “ethylene gas from acetylene reduction (nitrogenase activity)” value is recorded as “increased amounts of ethylene gas”. Moreover, in experiment [3], the root length entry is given as “increase”, the root surface area entry was “increase” and the shoot height entry was “increase”. Also, the “soil phosphate depletion over the growing season (pre VT to post VT)” value in experiment [4] is reported as “less phosphate depletion; also recorded: significantly reduced”. For the same compound, the “clearance halos around PSB colony” value in experiment [5] is listed as “larger clearance”. In addition, the “increase of phosphate concentration over the untreated control” value in experiment [6] (highest treatment 25 ug/mL, 4 days, room temperature) is given as 2-3 fold. Besides, the “ability of soil consortia cultures to solubilize phosphorus” value in experiment [6] (increasing amounts of AB09, 4 days) is listed as “enhanced by AB09 in a dose-responsive manner”.
